Measured values taken from PubChem BioAssay AID1963849 (Molecular Pharmacology Branch, DTP, NCI, 2024).

Tested on: 299254-011-R-J1-PDC complex spheroid viability
Assay: Anticancer human tumor 299254-011-R-J1-PDC patient-derived melanoma cell line growth inhibition [POLQ]
Details: for IC50: curve of first compound; for viability, T/C: stronger effect = lower value
Summary of the method: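 Complex spheroid viability model combining PDC tumour cells with endothelial (HUVEC) and MSC stromal cells. Novobiocin, ART-558 or RP6685 were tested singly and in combination with standard and investigational anticancer drugs. Each was titrated in half-log steps from near clinical Cmax, or from 10 microM where Cmax was unknown.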

[1] = second compound 0.0316 µM, first compound 0.0316 µM
[2] = second compound 0.0316 µM, first compound 0.1 µM
[3] = second compound 0.1 µM, first compound 0.0316 µM
[4] = second compound 0.1 µM, first compound 0.1 µM
[5] = second compound 0.316 µM, first compound 0.0316 µM
[6] = second compound 0.316 µM, first compound 0.1 µM
[7] = second compound 1 µM, first compound 0.0316 µM
[8] = second compound 1 µM, first compound 0.1 µM
[9] = second compound 3.16 µM, first compound 0.0316 µM
[10] = second compound 3.16 µM, first compound 0.1 µM
[11] = second compound 10 µM, first compound 0.0316 µM
[12] = second compound 10 µM, first compound 0.1 µM
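Further: spheroids exposed to drugs for one week before measurement.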
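Wherever viability, T/C is given: percent viability relative to DMSO vehicle control taken as 100%.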

In the case of COc1ccc([C@@H](O)c2cc(-c3ncnc4cc(N5CCOCC5)ccc34)c(F)cc2Cl)nn1 + Cc1cccc(N(C)C(=O)C2C(O)CCN2c2nc(C)cc(C(F)(F)F)c2C#N)c1, the IC50 (second compound 0.0316 µM) is reported as > 10 µM, the IC50 (second compound 0.1 µM) is reported as > 10 µM and the IC50 (second compound 0.316 µM) is reported as 8.36 µM. For the same compound, the IC50 (second compound 1 µM) was 8.8 µM, the IC50 (second compound 3.16 µM) was 6.8 µM and the IC50 (second compound 10 µM) was 5.75 µM. The viability, T/C [1] was 105%, the viability, T/C [2] was 102% and the viability, T/C (second compound 0.0316 µM, first compound 0.316 µM) was 96.7%. For the same compound, the viability, T/C (second compound 0.0316 µM, first compound 1 µM) was 99%, the viability, T/C (second compound 0.0316 µM, first compound 3.16 µM) was 87.9% and the viability, T/C (second compound 0.0316 µM, first compound 10 µM) was 49.6%. It also gave a viability, T/C [3] of 90.1%, a viability, T/C [4] of 89.2% and a viability, T/C (second compound 0.1 µM, first compound 0.316 µM) of 112%. The viability, T/C (second compound 0.1 µM, first compound 1 µM) was 92.5%, the viability, T/C (second compound 0.1 µM, first compound 3.16 µM) was 95.9% and the viability, T/C (second compound 0.1 µM, first compound 10 µM) was 53.4%. It also gave a viability, T/C [5] of 101%, a viability, T/C [6] of 108% and a viability, T/C (second compound 0.316 µM, first compound 0.316 µM) of 97.9%. For the same compound, the viability, T/C (second compound 0.316 µM, first compound 1 µM) was 86.2%, the viability, T/C (second compound 0.316 µM, first compound 3.16 µM) was 82.1% and the viability, T/C (second compound 0.316 µM, first compound 10 µM) was 43.6%. For the same compound, the viability, T/C [7] was 108%, the viability, T/C [8] was 97.6% and the viability, T/C (second compound 1 µM, first compound 0.316 µM) was 104%. It also gave a viability, T/C (second compound 1 µM, first compound 1 µM) of 111%, a viability, T/C (second compound 1 µM, first compound 3.16 µM) of 82.6% and a viability, T/C (second compound 1 µM, first compound 10 µM) of 46%. The viability, T/C [9] was 102%, the viability, T/C [10] was 102% and the viability, T/C (second compound 3.16 µM, first compound 0.316 µM) was 100%. It also gave a viability, T/C (second compound 3.16 µM, first compound 1 µM) of 90.2%, a viability, T/C (second compound 3.16 µM, first compound 3.16 µM) of 77.8% and a viability, T/C (second compound 3.16 µM, first compound 10 µM) of 36.5%. For the same compound, the viability, T/C [11] was 94.6%, the viability, T/C [12] was 82.8% and the viability, T/C (second compound 10 µM, first compound 0.316 µM) was 109%. It also gave a viability, T/C (second compound 10 µM, first compound 1 µM) of 88.5%, a viability, T/C (second compound 10 µM, first compound 3.16 µM) of 66% and a viability, T/C (second compound 10 µM, first compound 10 µM) of 35.3%.
In the case of Cn1ncnc1[C@H]1c2n[nH]c(=O)c3cc(F)cc(c23)N[C@@H]1c1ccc(F)cc1 + Cc1cccc(N(C)C(=O)C2C(O)CCN2c2nc(C)cc(C(F)(F)F)c2C#N)c1, the IC50 (second compound 0.0316 µM) is reported as > 0.1 µM, the IC50 (second compound 0.1 µM) is reported as > 0.1 µM and the IC50 (second compound 0.316 µM) is reported as > 0.1 µM. The IC50 (second compound 1 µM) was > 0.1 µM, the IC50 (second compound 3.16 µM) was > 0.1 µM and the IC50 (second compound 10 µM) was > 0.1 µM. For the same compound, the viability, T/C (second compound 0.0316 µM, first compound 0.000316 µM) was 102%, the viability, T/C (second compound 0.0316 µM, first compound 0.001 µM) was 91.6% and the viability, T/C (second compound 0.0316 µM, first compound 0.00316 µM) was 95.9%. It also gave a viability, T/C (second compound 0.0316 µM, first compound 0.01 µM) of 110%, a viability, T/C [1] of 112% and a viability, T/C [2] of 113%. The viability, T/C (second compound 0.1 µM, first compound 0.000316 µM) was 119%, the viability, T/C (second compound 0.1 µM, first compound 0.001 µM) was 108% and the viability, T/C (second compound 0.1 µM, first compound 0.00316 µM) was 117%. It also gave a viability, T/C (second compound 0.1 µM, first compound 0.01 µM) of 106%, a viability, T/C [3] of 114% and a viability, T/C [4] of 119%. It also gave a viability, T/C (second compound 0.316 µM, first compound 0.000316 µM) of 108%, a viability, T/C (second compound 0.316 µM, first compound 0.001 µM) of 96.4% and a viability, T/C (second compound 0.316 µM, first compound 0.00316 µM) of 102%. The viability, T/C (second compound 0.316 µM, first compound 0.01 µM) was 114%, the viability, T/C [5] was 106% and the viability, T/C [6] was 102%. It also gave a viability, T/C (second compound 1 µM, first compound 0.000316 µM) of 111%, a viability, T/C (second compound 1 µM, first compound 0.001 µM) of 116% and a viability, T/C (second compound 1 µM, first compound 0.00316 µM) of 103%. It also gave a viability, T/C (second compound 1 µM, first compound 0.01 µM) of 114%, a viability, T/C [7] of 102% and a viability, T/C [8] of 94.1%. For the same compound, the viability, T/C (second compound 3.16 µM, first compound 0.000316 µM) was 90.1%, the viability, T/C (second compound 3.16 µM, first compound 0.001 µM) was 109% and the viability, T/C (second compound 3.16 µM, first compound 0.00316 µM) was 103%. It also gave a viability, T/C (second compound 3.16 µM, first compound 0.01 µM) of 111%, a viability, T/C [9] of 122% and a viability, T/C [10] of 114%. It also gave a viability, T/C (second compound 10 µM, first compound 0.000316 µM) of 93.6%, a viability, T/C (second compound 10 µM, first compound 0.001 µM) of 107% and a viability, T/C (second compound 10 µM, first compound 0.00316 µM) of 113%. The viability, T/C (second compound 10 µM, first compound 0.01 µM) was 94%, the viability, T/C [11] was 98% and the viability, T/C [12] was 99%.
